Structures are written as SMILES.

In one experiment the test system is NCI-H82 cell. In words: Cell viability (Promega CellTiter-Glo) of NCI-H82 cell. The class given is cell-based. As to conditions: Homo sapiens, NCI-H82. The procedure:
Cell viability was detected using the Promega CellTiter-Glo kit, the kit reflected cell viability by directly measuring intracellular ATP content. Small cell lung cancer cell NCI-H82 (ATCC, No. HTB-175) was cultured in 10% fetal bovine serum-containing RPMI1640 medium (+P/S).
Cell viability was detected using the Promega CellTiter-Glo kit, the kit reflected cell viability by directly measuring intracellular ATP content.
Daoy cell was cultured in 10% fetal bovine serum-containing DMEM medium (+P/S), and NCI-H82 cell was cultured in 10% fetal bovine serum-containing RPMI1640 medium (+P/S).
Cell viability was detected using the Promega CellTiter-Glo kit, the kit reflected cell viability by directly measuring intracellular ATP content. In the experiment, the IC50 value of different compounds on different tumor cell lines was detected to determine cell lines that were sensitive or insensitive to different compounds.
Tumor cells were cultured in 10% FBS-containing medium (+p/s), and incubated for 3 h or the following day, then the gradient diluted compound was added. After 3 days of culture, the relevant IC50 (50% inhibiting concentration) was measured. The name, source and culture conditions of each tumor cell line were as follows:
Cell line NCI-H82 (ATCC, No. HTB-175) was cultured in 10% fetal bovine serum-containing RPMI1640 medium (+P/S).
(ATP-based viability assays read luminescence as a measure of living cells.)
Regarding `Cc1ccc(C(=O)C[n+]2ccc3ccn(Cc4ccccc4)c3c2)cc1` [AB24945], the IC50 (as a rule, the concentration that inhibits the measured activity by half) was found to be 4.22 µM.

Consider `O=C(C[n+]1ccc2cc(Cc3ccccc3)[nH]c2c1)c1ccc(Cl)cc1` [AB24828A], for which half-maximal inhibition (IC50) was put at 5.79 µM.

`O=C(C[n+]1ccc2c(Cc3ccccc3)c[nH]c2c1)c1ccc([N+](=O)[O-])cc1` [AB24863] had an IC50 of 3.61 µM.

Compound `O=C(C[n+]1ccc2[nH]c(Cc3ccccc3)cc2c1)c1ccc(Cl)cc1` [AB24827A] had an IC50 of 2.89 µM.

The compound `O=C(C[n+]1ccc2cc(-c3ccccc3)[nH]c2c1)c1ccc(Cl)cc1` [AB24831A] had an IC50 of 5.41 µM.

Regarding `O=C(C[n+]1ccc2c(Cc3ccccc3)c[nH]c2c1)c1ccc(Cl)cc1` [AB24835A], half-maximal inhibition (IC50) required 2.75 µM.

The experiment is the same for the next values; noted with them: Homo sapiens; NCI-H82 cell, Table 1; read-out: IC50.
Regarding `COc1cccc2c1CCC([n+]1ccc(NCc3ccccc3)cc1)C2=O` (stereo not drawn) [AB24954], the IC50 amounted to 0.39 µM.

`CC(Nc1cc[n+](CC(=O)c2ccc(Cl)cc2)cc1)c1ccccc1` (stereo not drawn) [AB24814]: the IC50 came out at 5.54 µM.

Turning to `Cc1cn(Cc2ccccc2)c2cc[n+](C3CCc4ccc(C(F)(F)F)cc4C3=O)cc12` (stereo not drawn) [AB27174], the IC50 amounted to 0.1 µM.

As for `COc1ccc(C(=O)C[n+]2ccc(NCc3ccccc3)nc2)cc1` [AB24963], the IC50 stood at 0.33 µM.

On to `O=C(C[n+]1ccc2c(-c3ccccc3)n[nH]c2c1)c1cccc([N+](=O)[O-])c1` [AB24898], for which the IC50 stood at 6.28 µM.

On to `O=C(C[n+]1ccc2c(Cc3ccccc3)c[nH]c2c1)c1ccc(C(F)(F)F)cc1` [AB27106], for which the IC50 worked out at 1.62 µM.

With `O=C(C[n+]1ccc(NCc2ccccc2)nc1)c1cccc(OC(F)(F)F)c1` [AB24967], the IC50 is 3.88 µM.

As for `Cn1ccc2c[n+](C3CCc4ccc(C(F)(F)F)cc4C3=O)ccc21` (stereo not drawn) [AB27148], the IC50 was 2.81 µM.

Turning to `Cc1ccc2c(c1)C(=O)C([n+]1ccc3c(c1)c(C)cn3Cc1ccccc1)CC2` (stereo not drawn) [AB27176], the IC50 was 0.04 µM.

On to `O=C1c2ncccc2CCC1[n+]1ccc(NCc2ccccc2)cc1` (stereo not drawn) [AB24923], for which the IC50 is 6.85 µM.

Take `O=C(C[n+]1ccc2c(c1)C=CCC(c1ccccc1)N2)c1ccc(Cl)cc1` (stereo not drawn) [AB24839B]: the half-inhibitory concentration (IC50) turned out to be 9.13 µM.

On to `Cc1ccc2c(c1)C(=O)C([n+]1ccc3c(c1)CCC(c1ccccc1)N3)CC2` (stereo not drawn) [AB27133], for which the IC50 amounted to 0.34 µM.

For the compound `Cc1cc2c[n+](C3CCc4ccc(Cl)cc4C3=O)ccc2n1Cc1ccccc1` (stereo not drawn) [AB27129], the IC50 came to 0.26 µM.

With `O=C(C[n+]1ccc2c(ccn2Cc2ccccc2)c1)c1ccc(C(F)(F)F)cc1` [AB24987], the IC50 was determined as 2 µM.

Consider `O=C1c2ccc(C(F)(F)F)cc2CCC1[n+]1ccc2c(ccn2Cc2ccccc2)c1` (stereo not drawn) [AB24996], for which the IC50 worked out at 1.35 µM.

Regarding `CCn1ccc2c[n+](C3CCc4ccc(OC(F)(F)F)cc4C3=O)ccc21` (stereo not drawn) [AB27155], the IC50 turned out to be 0.65 µM.

`O=C1c2ccc(C(F)(F)F)cc2CCC1[n+]1ccc2c(c1)CCC(c1ccccc1)N2` (stereo not drawn) [AB27104]: the IC50 amounted to 0.72 µM.

In the case of `Cc1cnc(C(=O)C[n+]2ccc(NCc3ccccc3)cc2)cn1` [AB24821], the IC50 amounted to 7.17 µM.

Take `Cn1ccc2c[n+](C3CCc4ccc(OC(F)(F)F)cc4C3=O)ccc21` (stereo not drawn) [AB27154]: the IC50 was 0.87 µM.

As to `O=C(C[n+]1ccc(NCc2ccccn2)cc1)c1ccc(Cl)cc1` [AB24822], the IC50 stood at 6.7 µM.

`CC(=O)N(Cc1ccccc1)c1cc[n+](CC(=O)c2ccc(C)cc2)cc1` [AB27166]: the IC50 came to 0.16 µM.

Regarding `O=C(C[n+]1ccc2c(c1)CC(c1ccccc1)N2)c1ccc(OC(F)(F)F)cc1` (stereo not drawn) [AB24999], the IC50 stood at 1.3 µM.

On to `Cc1ccc(C(=O)C[n+]2ccc(N3CCc4ccccc4C3=O)cc2)cc1` [AB24959], for which the IC50 is 4.11 µM.

As for `Cc1ccccc1C(=O)C[n+]1ccc2c(Cc3ccccc3)c[nH]c2c1` [AB24861], the IC50 was found to be 4.09 µM.

Turning to `Cc1ccc2c(c1)C(=O)C([n+]1ccc(NCc3ccccc3)cc1)C2` (stereo not drawn) [AB24905], the IC50 came out at 2.52 µM.

Regarding `CCCn1ccc2c[n+](C3CCc4ccc(OC(F)(F)F)cc4C3=O)ccc21` (stereo not drawn) [AB27145], the IC50 is 0.25 µM.

`Cc1ccc(C(=O)C[n+]2ccc(N3CCc4ccccc4C3)cc2)cc1` [AB24957]: the IC50 worked out at 1.06 µM.

With `O=C(C[n+]1ccc2c(ccn2Cc2ccccc2)c1)c1cccc([N+](=O)[O-])c1` [AB24888], the IC50 is 0.85 µM.

Regarding `Nc1cccc(C(=O)C[n+]2ccc(NCc3ccccc3)cc2)c1` [AB24983], the IC50 worked out at 3.4 µM.

As to `O=C(C[n+]1ccc2c(ccn2Cc2ccccc2)c1)c1ccc(OC(F)(F)F)cc1` [AB24988], the IC50 was 0.92 µM.

As for `Cc1ccc(Cc2c[nH]c3c[n+](CC(=O)c4ccc(C(F)(F)F)cc4)ccc23)cc1` [AB27118], the IC50 stood at 1.72 µM.

Regarding `Cc1ccc(C(=O)C[n+]2ccc3c(c2)ncn3Cc2ccccc2)cc1` [AB24885], the IC50 came out at 3.13 µM.

On to `O=C1c2ccc(OC(F)(F)F)cc2CCC1[n+]1ccc(NCc2ccccc2)cc1` (stereo not drawn) [AB27111], for which the IC50 was 0.85 µM.

For the compound `O=C1c2cc([N+](=O)[O-])ccc2CCC1[n+]1ccc(NCc2ccccc2)cc1` (stereo not drawn) [AB24920], the IC50 worked out at 1.01 µM.

For the compound `Cc1ccc(C(=O)C[n+]2ccc3c(Cc4ccccc4)c[nH]c3c2)cc1` [AB24859], the IC50 was found to be 2.29 µM.

In the case of `O=C(C[n+]1ccc2c(c1)CCC(c1ccccc1)N2)c1ccc(Cl)cc1` (stereo not drawn) [AB24838], the IC50 came out at 0.71 µM.

Consider `Cc1ccc(C(=O)C[n+]2csc(NCc3ccccc3)c2)cc1` [AB24851], for which the IC50 is 6.57 µM.

With `O=C(C[n+]1ccc(NCc2ccccc2)cc1)c1ccc(Cl)nc1` [AB24817], the IC50 amounted to 4.61 µM.

Turning to `CC(C)c1c[nH]c2c[n+](CC(=O)c3cccc(Cl)c3)ccc12` [AB24938], the IC50 is 3.96 µM.

As to `Cc1ccc(C(=O)C[n+]2ccc3c(-c4cccc(C)c4)c[nH]c3c2)cc1` [AB24872], the IC50 was 1.24 µM.

With `O=C1c2ccc(F)cc2CCC1[n+]1ccc(NCc2ccccc2)cc1` (stereo not drawn) [AB24949], the IC50 worked out at 0.68 µM.

On to `Cc1ccc2c(c1)CCC([n+]1ccc3c(ccn3C(C)c3ccccc3)c1)C2=O` (stereo not drawn) [AB27184], for which the IC50 worked out at 0.23 µM.

`O=C(Nc1ccc([N+](=O)[O-])cc1)c1ccc(NCc2ccccc2)cc1` [AB24883]: the IC50 came out at 6.37 µM.

Consider `CC(c1ccccc1)n1ccc2c[n+](C3CCc4ccc(OC(F)(F)F)cc4C3=O)ccc21` (stereo not drawn) [AB27162], for which the IC50 was determined as 0.24 µM.

`Cc1ccc(C(=O)C[n+]2ccc(N3Cc4ccccc4C3)cc2)cc1` [AB24956]: the IC50 was 0.77 µM.

In the case of `Cc1ccc(C(=O)C[n+]2ccc3c(ccn3Cc3ccccc3)c2)cc1` [AB24887], the IC50 was 0.29 µM.

For `O=C(C[n+]1ccc2[nH]c(Cc3ccccc3)cc2c1)c1ccc(C(F)(F)F)cc1` [AB27114], the IC50 is 3.93 µM.

For `COc1ccc(C(=O)C[n+]2ccc(NCc3ccccc3)cc2)cc1` [AB24803A], the IC50 was 0.23 µM.

With `CCn1ccc2c[n+](C3CCc4ccc(C(F)(F)F)cc4C3=O)ccc21` (stereo not drawn) [AB27149], the IC50 stood at 1.98 µM.

With `Cc1ccc2c(c1)C(=O)C([n+]1ccc3c(ccn3C(C)c3ccccc3)c1)CC2` (stereo not drawn) [AB27163], the IC50 amounted to 0.15 µM.

For the compound `CC(C)(C(=O)c1ccc(Cl)cc1)[n+]1ccc(NCc2ccccc2)cc1` [AB24813], the IC50 stood at 5.93 µM.

Consider `Cc1ccc2c(c1)C(=O)C([n+]1ccc(NCc3ccccc3)cc1)CC2` (stereo not drawn) [AB24916], for which the IC50 stood at 0.38 µM.

On to `Cc1ccc(C(=O)Cn2cnc(/C=C/c3ccccc3)c2)cc1` [AB24850], for which the IC50 stood at 5.78 µM.

Consider `Cc1ccc2c(c1)CC([n+]1ccc(NCc3ccccc3)cc1)C2=O` (stereo not drawn) [AB24906], for which the IC50 came to 1.66 µM.

Regarding `Cc1ccc(C(=O)C[n+]2ccc3c(ccn3-c3ccccc3)c2)cc1` [AB24895], the IC50 is 2.09 µM.

In the case of `Cc1cccc2c1C(=O)C([n+]1ccc(NCc3ccccc3)cc1)C2` (stereo not drawn) [AB24904], the IC50 amounted to 3.22 µM.

As to `Cc1ccc2c(c1)CCC([n+]1ccc(NCc3ccccc3)cc1)C2=O` (stereo not drawn) [AB24917], the IC50 came out at 0.12 µM.

As for `O=C1c2cc(OC(F)(F)F)ccc2CCC1[n+]1ccc2c(ccn2C2CC2)c1` (stereo not drawn) [AB27158], the IC50 was determined as 0.55 µM.

As to `Cc1ccc(C(=O)C[n+]2ccc(NCc3ccccc3)c(C)c2)cc1` [AB27169], the IC50 was 0.32 µM.

With `CC(c1ccccc1)n1ccc2c[n+](C3CCc4ccc(C(F)(F)F)cc4C3=O)ccc21` (stereo not drawn) [AB27161], the IC50 came to 0.28 µM.

Regarding `Cc1ccc(C(=O)C[n+]2ccc3c(Cc4cccc(Cl)c4)c[nH]c3c2)cc1` [AB24854], the IC50 turned out to be 1.57 µM.

Turning to `CC(c1ccccc1)n1ccc2c[n+](C3CCc4ccc(Cl)cc4C3=O)ccc21` (stereo not drawn) [AB27165], the IC50 amounted to 0.41 µM.

For `Cc1ccc2c(c1)CCC([n+]1ccc(NCc3ccccc3)nc1)C2=O` (stereo not drawn) [AB24961], the 50% inhibitory concentration (IC50) was 0.54 µM.

On to `O=C(C[n+]1ccc2c(-c3ccccc3)c[nH]c2c1)c1cccc([N+](=O)[O-])c1` [AB24878], for which the IC50 is 3.58 µM.

Turning to `O=C1c2cnccc2CCC1[n+]1ccc(NCc2ccccc2)cc1` (stereo not drawn) [AB24924], the IC50 was determined as 3.96 µM.

`O=C1c2cc(F)ccc2CCC1[n+]1ccc(NCc2ccccc2)cc1` (stereo not drawn) [AB24948]: the IC50 turned out to be 0.1 µM.

Regarding `O=C(C[n+]1ccc2c(Cc3ccccc3)c[nH]c2c1)c1ccc(OC(F)(F)F)cc1` [AB27107], the IC50 was 2.18 µM.

Regarding `Cc1ccc(C(=O)C[n+]2ccc(N(C)Cc3ccccc3)cc2)cc1` [AB24955], the IC50 came out at 2.8 µM.

Turning to `O=C(C[n+]1ccc2c(ccn2Cc2ccccc2)c1)c1cccc(Cl)c1` [AB24991], the IC50 stood at 0.34 µM.

For the origin of these results see patent publication US20240124445A1, “BENZENE RING COMPOUND AND USE THEREOF” (NANJING SHIJIANG MEDICINE TECHNOLOGY CO., LTD, priority 2020, published 2024).
